Data reported in ChEMBL document CHEMBL5321293, “Discovery of ERD-3111 as a Potent and Orally Efficacious Estrogen Receptor PROTAC Degrader with Strong Antitumor Activity” (J Med Chem, 2023).

What was measured:
[1] = biological target: T1, Protein cereblon/Estrogen receptor (Homo sapiens, UniProt P03372+Q96SW2); test: Protac activity at human ERalpha in human MCF7 cells assessed as protein degradation incubated for 12 hrs by ICW blot assay; type: cell-based
Target sequence in this assay (P03372 whole entry): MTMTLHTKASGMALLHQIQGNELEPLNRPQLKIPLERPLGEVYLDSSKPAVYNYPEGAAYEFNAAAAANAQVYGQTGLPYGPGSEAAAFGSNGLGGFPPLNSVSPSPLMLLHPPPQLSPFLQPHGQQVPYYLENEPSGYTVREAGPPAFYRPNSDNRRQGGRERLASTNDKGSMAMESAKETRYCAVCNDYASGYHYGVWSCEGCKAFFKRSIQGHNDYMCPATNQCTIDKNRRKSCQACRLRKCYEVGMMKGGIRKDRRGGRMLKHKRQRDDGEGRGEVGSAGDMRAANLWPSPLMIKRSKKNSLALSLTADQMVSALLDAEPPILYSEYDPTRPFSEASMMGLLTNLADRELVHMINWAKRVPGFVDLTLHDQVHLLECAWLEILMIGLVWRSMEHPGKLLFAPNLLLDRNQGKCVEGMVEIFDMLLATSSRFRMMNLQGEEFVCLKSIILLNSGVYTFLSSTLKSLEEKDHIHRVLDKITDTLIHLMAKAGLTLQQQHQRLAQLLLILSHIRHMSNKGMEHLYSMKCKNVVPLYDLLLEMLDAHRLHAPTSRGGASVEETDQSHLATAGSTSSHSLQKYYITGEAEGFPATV
Target sequence in this assay (Q96SW2 whole entry): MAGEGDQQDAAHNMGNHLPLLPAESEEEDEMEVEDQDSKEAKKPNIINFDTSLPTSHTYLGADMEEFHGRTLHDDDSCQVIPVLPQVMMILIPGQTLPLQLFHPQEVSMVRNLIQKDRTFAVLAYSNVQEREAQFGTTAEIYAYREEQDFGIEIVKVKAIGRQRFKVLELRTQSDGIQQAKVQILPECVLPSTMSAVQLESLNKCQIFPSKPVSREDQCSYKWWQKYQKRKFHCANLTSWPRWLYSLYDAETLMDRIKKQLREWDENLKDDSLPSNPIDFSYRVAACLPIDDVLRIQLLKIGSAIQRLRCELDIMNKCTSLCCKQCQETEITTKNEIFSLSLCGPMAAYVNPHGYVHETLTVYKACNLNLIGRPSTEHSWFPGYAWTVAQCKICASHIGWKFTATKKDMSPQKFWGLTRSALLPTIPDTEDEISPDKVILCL

[2] = biological target: T1, Protein cereblon/Estrogen receptor; test: Protac activity at human ERalpha in human MCF7 cells assessed as induction of ERalpha degradation by measuring maximum efficacy at 1 uM incubated for 12 hrs by ICW blot assay relative to control; type: cell-based
Target sequence in this assay (P03372 whole entry, looked up): as the sequence (P03372 whole entry) above
Target sequence in this assay (Q96SW2 whole entry, looked up): as the sequence (Q96SW2 whole entry) above

[3] = Volume of distribution at steady state in Sprague-Dawley rat at 1 mg/kg, iv and measured upto 24 hrs by LC-MS/MS analysis; conditions: in vivo
[4] = Clearance in Sprague-Dawley rat at 1 mg/kg, iv and measured upto 24 hrs by LC-MS/MS analysis; conditions: in vivo
[5] = Half life in Sprague-Dawley rat at 3 mg/kg, po and measured upto 24 hrs by LC-MS/MS analysis; conditions: in vivo
[6] = AUC in Sprague-Dawley rat at 3 mg/kg, po and measured upto 24 hrs by LC-MS/MS analysis; type: ADME, organism-based; design: dose 3 mg/kg, time < 24 hrs, route po; conditions: Sprague-Dawley, in vivo
in vivo [7] = conditions: Sprague-Dawley, rat, po, 3 mg/kg
in vivo [8] = conditions: Sprague-Dawley, rat, po, 3 mg/kg; remark: listed apart in the source
[9] = Volume of distribution at steady state in ICR mouse at 1 mg/kg, iv and measured upto 24 hrs by LC-MS/MS analysis; type: ADME, organism-based; conditions: in vivo, read-out: Vdss
[10] = Clearance in ICR mouse at 1 mg/kg, iv and measured upto 24 hrs by LC-MS/MS analysis; type: ADME, organism-based; conditions: in vivo
[11] = Half life in ICR mouse at 3 mg/kg, po and measured upto 24 hrs by LC-MS/MS analysis; type: ADME, organism-based; conditions: in vivo
[12] = Cmax in ICR mouse at 3 mg/kg, po and measured upto 24 hrs by LC-MS/MS analysis; type: ADME, organism-based; design: dose 3 mg/kg, time < 24 hrs, route po; conditions: in vivo
[13] = AUC in ICR mouse at 3 mg/kg, po and measured upto 24 hrs by LC-MS/MS analysis; type: ADME, organism-based; design: dose 3 mg/kg, time < 24 hrs, route po; conditions: in vivo
[14] = Oral bioavailability in ICR mouse at 3 mg/kg and measured upto 24 hrs by LC-MS/MS analysis; type: ADME, organism-based; conditions: in vivo

Row | SMILES | DC50 [1] [µM] | Emax [2] [%] | also measured
1 | C[C@@H]1Cc2c(ccc3[nH]ncc23)[C@@H](c2c(F)cc(N3CCC4(CCN(C(=O)CN5Cc6cc7c(cc6C5)C(=O)N(C5CCC(=O)NC5=O)C7=O)CC4)CC3)cc2F)N1CC(F)(F)F (stereo partly specified) | 0.002 | 88 | 
2 | O=C1CCC(N2C(=O)c3cc4c(cc3C2=O)CN(CC(=O)N2CCCC3(CCN(c5ccc([C@@H]6c7ccc(O)cc7CC[C@@H]6c6ccccc6)cc5)CC3)C2)C4)C(=O)N1 (stereo partly specified) | 0.393 | 58 | 
3 | O=C1CCC(N2C(=O)c3cc4c(cc3C2=O)CN(C(=O)C2CCN(CC3CN(c5ccc([C@@H]6c7ccc(O)cc7CC[C@@H]6c6ccccc6)cc5)C3)CC2)C4)C(=O)N1 (stereo partly specified) | > 1 | 40 | 
4 | O=C1CCC(N2C(=O)c3cc4c(cc3C2=O)CN(CCCC2CCN(c3ccc([C@@H]5c6ccc(O)cc6CC[C@@H]5c5ccccc5)cc3)CC2)C4)C(=O)N1 (stereo partly specified) | 0.171 | 79 | 
5 | O=C1CCC(N2C(=O)c3cc4c(cc3C2=O)CN(C2CCN(C(=O)C3CCN(c5ccc([C@@H]6c7ccc(O)cc7CC[C@@H]6c6ccccc6)cc5)CC3)CC2)C4)C(=O)N1 (stereo partly specified) | 0.0016 | 95 | Vd at 24 h [3]: 2 L/kg; clearance at 24 h [4]: 23.1 mL/min/kg; half-life at 24 h [5]: 2.7 h; AUC at 24 h [6]: 206 ng·h/mL; Cmax at 24 h (in vivo [7]): 40.6 ng/mL; bioavailability at 24 h (in vivo [8]): 10%
6 | O=C1CCC(N2C(=O)c3cc4c(cc3C2=O)CN(CCC2CCN(c3ccc([C@@H]5c6ccc(O)cc6CC[C@@H]5c5ccccc5)cc3)CC2)C4)C(=O)N1 (stereo partly specified) | 1 | 50 | 
7 | O=C1CCC(N2C(=O)c3cc4c(cc3C2=O)CN(CC(=O)N2CCC3(CC2)CN(c2ccc([C@@H]5c6ccc(O)cc6CC[C@@H]5c5ccccc5)cc2)C3)C4)C(=O)N1 (stereo partly specified) | 0.0018 | 68 | 
8 | O=C1CCC(N2C(=O)c3cc4c(cc3C2=O)CN(C2CCN(CC3CN(c5ccc([C@@H]6c7ccc(O)cc7CC[C@@H]6c6ccccc6)cc5)C3)CC2)C4)C(=O)N1 (stereo partly specified) | 0.295 | 57 | 
9 | O=C1CCC(N2C(=O)c3cc4c(cc3C2=O)CN(CC2CCN(C(=O)C3CCN(c5ccc([C@@H]6c7ccc(O)cc7CC[C@@H]6c6ccccc6)cc5)CC3)CC2)C4)C(=O)N1 (stereo partly specified) | 0.013 | 76 | 
10 | O=C1CCC(N2C(=O)c3cc4c(cc3C2=O)CN(CCCCCCC2CCN(c3ccc([C@@H]5c6ccc(O)cc6CC[C@@H]5c5ccccc5)cc3)CC2)C4)C(=O)N1 (stereo partly specified) | 0.129 | 101 | 
11 | O=C1CCC(N2C(=O)c3cc4c(cc3C2=O)CN(CC(=O)N2CC3(CCN(c5ccc([C@@H]6c7ccc(O)cc7CC[C@@H]6c6ccccc6)cc5)CC3)C2)C4)C(=O)N1 (stereo partly specified) | 0.0028 | 71 | 
12 | O=C1CCC(N2C(=O)c3cc4c(cc3C2=O)CN(CCCCCC2CCN(c3ccc([C@@H]5c6ccc(O)cc6CC[C@@H]5c5ccccc5)cc3)CC2)C4)C(=O)N1 (stereo partly specified) | 0.031 | 106 | 
13 | O=C1CCC(N2C(=O)c3cc4c(cc3C2=O)CN(CC(=O)N2CC3(CCN(c5ccc([C@@H]6c7ccc(O)cc7CC[C@@H]6c6ccccc6)cc5)C3)C2)C4)C(=O)N1 (stereo partly specified) | 0.004 | 63 | 
14 | O=C1CCC(N2C(=O)c3cc4c(cc3C2=O)CN(CC(=O)N2CCC3(C2)CN(c2ccc([C@@H]5c6ccc(O)cc6CC[C@@H]5c5ccccc5)cc2)C3)C4)C(=O)N1 (stereo partly specified) | > 1 | 23 | 
15 | O=C1CCC(N2C(=O)c3cc4c(cc3C2=O)CN(CCCCC2CCN(c3ccc([C@@H]5c6ccc(O)cc6CC[C@@H]5c5ccccc5)cc3)CC2)C4)C(=O)N1 (stereo partly specified) | 0.236 | 67 | 
16 | O=C1CCC(N2C(=O)c3cc4c(cc3C2=O)CN(CC(=O)N2CCC3(CC2)CCN(c2ccc([C@H]5c6ccc(O)cc6CC[C@H]5c5ccccc5)cc2)C3)C4)C(=O)N1 (single isomer, unassigned) | 0.018 | 58 | 

Row | SMILES | DC50 [1] [µM] | Emax [2] [%] | also measured
17 | O=C1CCC(N2C(=O)c3cc4c(cc3C2=O)CN(CC2CCN(CC3CN(c5ccc([C@@H]6c7ccc(O)cc7CC[C@@H]6c6ccccc6)cc5)C3)CC2)C4)C(=O)N1 (stereo partly specified) | 0.019 | 64 | 
18 | O=C1CCC(N2C(=O)c3cc4c(cc3C2=O)CN(CC2CCN(c3ccc([C@@H]5c6ccc(O)cc6CC[C@@H]5c5ccccc5)cc3)CC2)C4)C(=O)N1 (stereo partly specified) | 0.415 | 65 | 
19 | O=C1CCC(N2C(=O)c3cc4c(cc3C2=O)CN(C(=O)CN2CCC3(CC2)CCN(c2ccc([C@@H]5c6ccc(O)cc6CC[C@@H]5c5ccccc5)cc2)CC3)C4)C(=O)N1 (stereo partly specified) | > 1 | 16 | 
20 | O=C1CCC(N2C(=O)c3cc4c(cc3C2=O)CN(CC2CN(C(=O)C3CCN(c5ccc([C@@H]6c7ccc(O)cc7CC[C@@H]6c6ccccc6)cc5)CC3)C2)C4)C(=O)N1 (stereo partly specified) | 0.006 | 84 | 
21 | O=C1CCC(N2C(=O)c3cc4c(cc3C2=O)CN(CC(=O)N2CCC3(CCN(c5ccc([C@@H]6c7ccc(O)cc7CC[C@@H]6c6ccccc6)cc5)CC3)C2)C4)C(=O)N1 (stereo partly specified) | 0.0046 | 75 | 
22 | O=C1CCC(N2C(=O)c3cc4c(cc3C2=O)CN(C2CCN(CC3CCN(c5ccc([C@@H]6c7ccc(O)cc7CC[C@@H]6c6ccccc6)cc5)CC3)CC2)C4)C(=O)N1 (stereo partly specified) | 0.0023 | 84 | Vd at 24 h [3]: 8.8 L/kg; clearance at 24 h [4]: 25.7 mL/min/kg; half-life at 24 h [5]: 4 h; AUC at 24 h [6]: 552 ng·h/mL; Vd [9]: 16.2 L/kg; clearance [10]: 14.2 mL/min/kg; half-life [11]: 9.8 h; Cmax [12]: 93.3 ng/mL; AUC at 24 h [13]: 1480 ng·h/mL; bioavailability [14]: 58%; Cmax at 24 h (in vivo [7]): 54.6 ng/mL; bioavailability at 24 h (in vivo [8]): 30%
23 | C[C@@H]1Cc2c(ccc3[nH]ncc23)[C@@H](c2ccc(N3CCC4(CCN(C(=O)CN5Cc6cc7c(cc6C5)C(=O)N(C5CCC(=O)NC5=O)C7=O)CC4)CC3)cn2)N1CC(F)(F)F (stereo partly specified) | 0.0038 | 107 | Vd at 24 h [3]: 3.7 L/kg; clearance at 24 h [4]: 27 mL/min/kg; half-life at 24 h [5]: 2.3 h; AUC at 24 h [6]: 243 ng·h/mL; Cmax at 24 h (in vivo [7]): 51.8 ng/mL; bioavailability at 24 h (in vivo [8]): 14%
24 | C[C@@H]1Cc2c(ccc3[nH]ncc23)[C@@H](c2ccc(N3CCC4(CCN(C(=O)CN5Cc6cc7c(cc6C5)C(=O)N(C5CCC(=O)NC5=O)C7=O)CC4)CC3)cn2)N1CC(F)F (stereo partly specified) | 0.014 | 112 | 
25 | O=C1CCC(N2C(=O)c3cc4c(cc3C2=O)CN(C2CCN(c3ccc([C@@H]5c6ccc(O)cc6CC[C@@H]5c5ccccc5)cc3)CC2)C4)C(=O)N1 (stereo partly specified) | > 1 | 32 | 
26 | O=C1CCC(N2C(=O)c3cc4c(cc3C2=O)CN(CC2CCN(C(=O)C3CN(c5ccc([C@@H]6c7ccc(O)cc7CC[C@@H]6c6ccccc6)cc5)C3)CC2)C4)C(=O)N1 (stereo partly specified) | 0.032 | 87 | 
27 | O=C1CCC(N2C(=O)c3cc4c(cc3C2=O)CN(CC(=O)N2CC3(C2)CN(c2ccc([C@@H]5c6ccc(O)cc6CC[C@@H]5c5ccccc5)cc2)C3)C4)C(=O)N1 (stereo partly specified) | 0.011 | 65 | 
28 | COc1cc(N2CCC3(CCN(C(=O)CN4Cc5cc6c(cc5C4)C(=O)N(C4CCC(=O)NC4=O)C6=O)CC3)CC2)ccc1[C@@H]1c2ccc3[nH]ncc3c2C[C@@H](C)N1CC(F)F (stereo partly specified) | 0.0014 | 82 | 
29 | O=C1CCC(N2C(=O)c3cc4c(cc3C2=O)CN(CC2CN(CC3CCN(c5ccc([C@@H]6c7ccc(O)cc7CC[C@@H]6c6ccccc6)cc5)CC3)C2)C4)C(=O)N1 (stereo partly specified) | 0.021 | 59 | 
30 | O=C1CCC(N2C(=O)c3cc4c(cc3C2=O)CN(C(=O)C2CCN(CC3CCN(c5ccc([C@@H]6c7ccc(O)cc7CC[C@@H]6c6ccccc6)cc5)CC3)CC2)C4)C(=O)N1 (stereo partly specified) | 0.0097 | 63 | 
31 | O=C1CCC(N2C(=O)c3cc4c(cc3C2=O)CN(C2CN(CC3CCN(c5ccc([C@@H]6c7ccc(O)cc7CC[C@@H]6c6ccccc6)cc5)CC3)C2)C4)C(=O)N1 (stereo partly specified) | 0.989 | 50 | 
